Measurements as given in US11993582B2, “Crystalline forms of a LTA4H inhibitor” (Novartis AG, priority 2018, dated 2024).
≈ marks a conversion by molar mass, not a printed value.

Columns and labels:
Assay type in all cases: physicochemical
[1] = Competitive slurry experiments at different water activities
Experimental: Competitive slurry experiments at different water activities at 25° C. and at 50° C. were performed. Competitive slurries of a (1:1) physical mixture of Modifications HB and B at different water activities were also performed.

Hygroscopicity by DVS = assay: Hygroscopicity by DVS
Text: Crystalline form HB is a hydrated form of (S)-3-amino-4-(5-(4-((5-chloro-3-fluoropyridin-2-yl)oxy)phenyl)-2H-tetrazol-2-yl)butanoic acid.

[2] = Solubility in aqueous buffers and bio-relevant media
[3] = Stability in solvent: equilibration of Form HB with solvent, residue analysed by XRPD; conditions: slurry experiments
Experimental: Equilibrations with solvent were carried out to investigate the relative stability of form HB in solvent. 50 mg of Form HB is equilibrated with 1 mL solvent for 24 h (or 7 days, or 28 days) in a water bath at 25° C. or for 7 days at 50° C. The solutions are filtered and dried for 10 minutes in air. The resulting solid is analyzed by XRPD.
Various solvent were investigated: acetone, acetonitrile, dichloromethane, dioxane, ethanol, heptane, methanol, THF, acetone/water mixtures from 10/90 to 90/10, acetonitrile/water mixtures from 10/90 to 90/10, dioxane/water mixtures from 10/90 to 90/10 and ethanol/water mixture from 10/90 to 90/10, tetrahydrofuran/water (50/50) and 1-propanol/water (70/30).

[4] = Solid state stability in bulk (HPLC degradation products, XRPD)
Experimental: The chemical and physical stability of form B and form HB was investigated, exposing the individual forms to high humidity at temperatures ranging from 25-80° C.
The degradation products were analyzed by HPLC and the sample was analyzed by XPRD to detect any changes to the solid state.

Q: With `N[C@@H](CC(=O)O)Cn1nnc(-c2ccc(Oc3ncc(Cl)cc3F)cc2)n1` (mixture of isomers) [Physical mixture of HB and B (1:1), (S)-3-amino-4-(5-(4-((5-chloro-3-fluoropyridin-2-yl)oxy)phenyl)-2H-tetrazol-2-yl)butanoic acid] as the compound, how does the “Solid form after competitive slurry” value ([1]; 25 Degrees Celsius, Acetonitrile, aw 0.00, 2 days) read?
A: The value was “Form B”.

Q: And the “Solid form after competitive slurry” value ([1]; 25 Degrees Celsius, Acetonitrile, aw 0.00, 5 days)?
A: Its value is “Form B”.

Q: What about the “Solid form after competitive slurry” value ([1]; 25 Degrees Celsius, Acetonitrile/water (83:17), aw 0.93, 2 days) of the same compound?
A: Its value is “Forms HB + B”.

Q: What about the “Solid form after competitive slurry” value ([1]; 25 Degrees Celsius, Acetonitrile/water (83:17), aw 0.93, 5 days) of the same compound?
A: Its value is “Forms HB + B”.

Q: What about the “Solid form after competitive slurry” value ([1]; 25 Degrees Celsius, Acetonitrile/water (88:12), aw 0.90, 2 days) of the same compound?
A: The value was “Forms HB + B”.

Q: What about the “Solid form after competitive slurry” value ([1]; 25 Degrees Celsius, Acetonitrile/water (88:12), aw 0.90, 5 days) of the same compound?
A: Its value is “Forms HB + B”.

Q: What about the “Solid form after competitive slurry” value ([1]; 25 Degrees Celsius, Acetonitrile/water (92:8), aw 0.82, 2 days) of the same compound?
A: Its value is “Forms HB + B”.

Q: And the “Solid form after competitive slurry” value ([1]; 25 Degrees Celsius, Acetonitrile/water (92:8), aw 0.82, 5 days)?
A: The value was “Forms HB + B”.

Q: And the “Solid form after competitive slurry” value ([1]; 25 Degrees Celsius, Acetonitrile/water (97:3), aw 0.50, 2 days)?
A: The value was “Forms HB + B”.

Q: What about the “Solid form after competitive slurry” value ([1]; 25 Degrees Celsius, Acetonitrile/water (97:3), aw 0.50, 5 days) of the same compound?
A: The value was “Form B”.

Q: And the “Solid form after competitive slurry” value ([1]; 25 Degrees Celsius, Acetonitrile/water (98:2), aw 0.44, 2 days)?
A: Its value is “Form B”.

Q: What about the “Solid form after competitive slurry” value ([1]; 25 Degrees Celsius, Acetonitrile/water (98:2), aw 0.44, 5 days) of the same compound?
A: Its value is “Form B”.

Q: And the “Solid form after competitive slurry” value ([1]; 25 Degrees Celsius, Methanol, aw 0.00, 2 days)?
A: The value was “Form B”.

Q: And the “Solid form after competitive slurry” value ([1]; 25 Degrees Celsius, Methanol, aw 0.00, 5 days)?
A: The value was “Form B”.

Q: What about the “Solid form after competitive slurry” value ([1]; 25 Degrees Celsius, Methanol/water (22:78), aw 0.90, 2 days) of the same compound?
A: Its value is “Forms HB + B”.

Q: What about the “Solid form after competitive slurry” value ([1]; 25 Degrees Celsius, Methanol/water (22:78), aw 0.90, 5 days) of the same compound?
A: Its value is “Forms HB + B”.

Q: And the “Solid form after competitive slurry” value ([1]; 25 Degrees Celsius, Methanol/water (57:43), aw 0.70, 2 days)?
A: Its value is “Forms HB + B”.

Q: What about the “Solid form after competitive slurry” value ([1]; 25 Degrees Celsius, Methanol/water (57:43), aw 0.70, 5 days) of the same compound?
A: The value was “Forms HB + B”.

Q: And the “Solid form after competitive slurry” value ([1]; 25 Degrees Celsius, Methanol/water (77:23), aw 0.50, 2 days)?
A: The value was “Form B”.

Q: What about the “Solid form after competitive slurry” value ([1]; 25 Degrees Celsius, Methanol/water (77:23), aw 0.50, 5 days) of the same compound?
A: The value was “Form B”.

Q: What about the “Solid form after competitive slurry” value ([1]; 25 Degrees Celsius, Methanol/water (89:11), aw 0.30, 2 days) of the same compound?
A: The value was “Form B”.

Q: What about the “Solid form after competitive slurry” value ([1]; 25 Degrees Celsius, Methanol/water (89:11), aw 0.30, 5 days) of the same compound?
A: Its value is “Form B”.

Q: What about the “Solid form after competitive slurry” value ([1]; 25 Degrees Celsius, Methanol/water (97:3), aw 0.11, 2 days) of the same compound?
A: Its value is “Form B”.

Q: What about the “Solid form after competitive slurry” value ([1]; 25 Degrees Celsius, Methanol/water (97:3), aw 0.11, 5 days) of the same compound?
A: Its value is “Form B”.

Q: And the “Solid form after competitive slurry” value ([1]; 25 Degrees Celsius, Water, aw 1.00, 2 days)?
A: The value was “Forms HB + B”.

Q: What about the “Solid form after competitive slurry” value ([1]; 25 Degrees Celsius, Water, aw 1.00, 5 days) of the same compound?
A: The value was “Forms HB + B”.

Q: And the “Water activity (aw) at which the mixture converted into pure Form B” value ([1]; 25° C.)?
A: The value was at most 0.5.

Q: What about the “Solid form after competitive slurry” value ([1]; 25° C., water activities above aw 0.5) of the same compound?
A: The value was “remained unchanged”.

Q: And the “Solid form after competitive slurry” value ([1]; 50 degrees, Acetonitrile, aw 0.00, 2 days)?
A: The value was “Form B”.

Q: What about the “Solid form after competitive slurry” value ([1]; 50 degrees, Acetonitrile, aw 0.00, 5 days) of the same compound?
A: Its value is “Form B”.

Q: What about the “Solid form after competitive slurry” value ([1]; 50 degrees, Acetonitrile/water (83:17), aw 0.90, 2 days) of the same compound?
A: Its value is “Forms B + HB”.

Q: What about the “Solid form after competitive slurry” value ([1]; 50 degrees, Acetonitrile/water (83:17), aw 0.90, 5 days) of the same compound?
A: The value was “Form B”.

Q: And the “Solid form after competitive slurry” value ([1]; 50 degrees, Acetonitrile/water (88:12), aw 0.86, 2 days)?
A: The value was “Form B”.

Q: What about the “Solid form after competitive slurry” value ([1]; 50 degrees, Acetonitrile/water (88:12), aw 0.86, 5 days) of the same compound?
A: Its value is “Form B”.

Q: What about the “Solid form after competitive slurry” value ([1]; 50 degrees, Acetonitrile/water (92:8), aw 0.77, 2 days) of the same compound?
A: Its value is “Form B”.

Q: And the “Solid form after competitive slurry” value ([1]; 50 degrees, Acetonitrile/water (92:8), aw 0.77, 5 days)?
A: Its value is “Form B”.

Q: What about the “Solid form after competitive slurry” value ([1]; 50 degrees, Acetonitrile/water (97:3), aw 0.46, 2 days) of the same compound?
A: The value was “Form B”.

Q: And the “Solid form after competitive slurry” value ([1]; 50 degrees, Acetonitrile/water (97:3), aw 0.46, 5 days)?
A: The value was “Form B”.

Q: What about the “Solid form after competitive slurry” value ([1]; 50 degrees, Acetonitrile/water (98:2), aw 0.34, 2 days) of the same compound?
A: The value was “Form B”.

Q: And the “Solid form after competitive slurry” value ([1]; 50 degrees, Acetonitrile/water (98:2), aw 0.34, 5 days)?
A: The value was “Form B”.

Q: What about the “Solid form after competitive slurry” value ([1]; 50 degrees, Methanol, aw 0.00, 2 days) of the same compound?
A: The value was “Form B”.

Q: What about the “Solid form after competitive slurry” value ([1]; 50 degrees, Methanol, aw 0.00, 5 days) of the same compound?
A: The value was “Form B”.

Q: What about the “Solid form after competitive slurry” value ([1]; 50 degrees, Methanol/water (22:78), aw 0.90, 2 days) of the same compound?
A: Its value is “Forms HB + B”.

Q: And the “Solid form after competitive slurry” value ([1]; 50 degrees, Methanol/water (22:78), aw 0.90, 5 days)?
A: Its value is “Forms B + HB”.

Q: And the “Solid form after competitive slurry” value ([1]; 50 degrees, Methanol/water (57:43), aw 0.71, 2 days)?
A: Its value is “Form B”.

Q: And the “Solid form after competitive slurry” value ([1]; 50 degrees, Methanol/water (57:43), aw 0.71, 5 days)?
A: Its value is “Form B”.

Q: What about the “Solid form after competitive slurry” value ([1]; 50 degrees, Methanol/water (77:23), aw 0.51, 2 days) of the same compound?
A: The value was “Form B”.

Q: And the “Solid form after competitive slurry” value ([1]; 50 degrees, Methanol/water (77:23), aw 0.51, 5 days)?
A: The value was “Form B”.

Q: And the “Solid form after competitive slurry” value ([1]; 50 degrees, Methanol/water (89:11), aw 0.31, 2 days)?
A: The value was “Form B”.

Q: What about the “Solid form after competitive slurry” value ([1]; 50 degrees, Methanol/water (89:11), aw 0.31, 5 days) of the same compound?
A: The value was “Form B”.

Q: And the “Solid form after competitive slurry” value ([1]; 50 degrees, Methanol/water (97:3), aw 0.21, 2 days)?
A: Its value is “Form B”.

Q: And the “Solid form after competitive slurry” value ([1]; 50 degrees, Methanol/water (97:3), aw 0.21, 5 days)?
A: Its value is “Form B”.

Q: And the “Solid form after competitive slurry” value ([1]; 50 degrees, Water, aw 1.00, 2 days)?
A: The value was “Forms B + HB”.

Q: What about the “Solid form after competitive slurry” value ([1]; 50 degrees, Water, aw 1.00, 5 days) of the same compound?
A: Its value is “Forms HB + B”.

Q: And the “Maximum water activity (aw) for transformation to Form B” value ([1]; 50° C.)?
A: Its value is at most 0.7.

Q: What does the source list for `N[C@@H](CC(=O)O)Cn1nnc(-c2ccc(Oc3ncc(Cl)cc3F)cc2)n1` [Form B, (S)-3-amino-4-(5-(4-((5-chloro-3-fluoropyridin-2-yl)oxy)phenyl)-2H-tetrazol-2-yl)butanoic acid]?
A: Maximum water uptake (Hygroscopicity by DVS; 25° C. at 90% RH by DVS): less than 0.7%; Hygroscopicity (Hygroscopicity by DVS; by DVS): slightly hygroscopic; solubility ([2]; FaSSIF-V2 (pH=6.6)): 70 µg/mL (≈ 178 µM); solubility ([2]; FeSSIF-V2 (pH=5.9)): 180 µg/mL (≈ 458 µM); solubility ([2]; aqueous buffers, aqueous buffer, pH values of 4 to 7): 50 µg/mL (≈ 127 µM); Form conversion through slurry [3]: does not transform into other form; Hydrate formation ([4]; 1 week at 40° C./90% RH): no hydrate formation was detected; Stability in bulk ([4]; 1 week at 40° C./90% RH): stable; Chemical and physical stability in bulk ([4]; test conditions 1-5: 1 week, tight or open container, room temperature to 80° C., up to 92% RH): displayed good stability and did not convert at all
